In PubChem BioAssay (NCI):
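Five compound concentrations were applied to cells in 96-well plates for 48 hours; endpoints were derived by simple linear interpolation of the resulting dose-response curve. The concentration for 50% growth inhibition is given as GI50. At the TGI there is no net growth.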

Key:
Assay in all cases: NCI anticancer screen, dose series, 48 h
A498 renal = test system: A498 renal
EKVX NSCLC = test system: EKVX NSCLC
HL-60(TB) leukemia = test system: HL-60(TB) leukemia
HOP-62 NSCLC = test system: HOP-62 NSCLC
K-562 leukemia = test system: K-562 leukemia
NCI/ADR-RES ovarian = test system: NCI/ADR-RES ovarian
OVCAR-3 ovarian = test system: OVCAR-3 ovarian
OVCAR-4 ovarian = test system: OVCAR-4 ovarian
SF-295 CNS = test system: SF-295 CNS
MOLT-4 leukemia = test system: MOLT-4 leukemia

`O=C(/C=C/c1ccc(O)cc1)NCCc1ccc(O)cc1` was tested, and the TGI (A498 renal) was over 12.5 µM, the TGI (EKVX NSCLC) was over 12.5 µM and the TGI (HL-60(TB) leukemia) was over 12.5 µM. The TGI (HOP-62 NSCLC) was over 12.5 µM, the TGI (K-562 leukemia) was over 12.5 µM and the TGI (NCI/ADR-RES ovarian) was over 12.5 µM. For the same compound, the TGI (OVCAR-3 ovarian) was over 12.5 µM, the TGI (OVCAR-4 ovarian) was over 12.5 µM and the TGI (SF-295 CNS) was over 12.5 µM.
Work on `COc1cccc(-c2nc3c(C(=O)NCCN(C)C)cccc3[nH]2)c1` yielded a TGI (A498 renal) of 32.1 µM, a TGI (EKVX NSCLC) of 97.5 µM and a TGI (HL-60(TB) leukemia) of 41.2 µM. For the same compound, the TGI (HOP-62 NSCLC) was 33.2 µM, the TGI (K-562 leukemia) was over 70.9 µM and the TGI (MOLT-4 leukemia) was 24.4 µM. It also gave a TGI (NCI/ADR-RES ovarian) of 44.1 µM, a TGI (OVCAR-3 ovarian) of over 75.9 µM and a TGI (OVCAR-4 ovarian) of 84.6 µM. For the same compound, the TGI (SF-295 CNS) was 47.6 µM.
With `C[N+]1(C)CCC(C#N)(c2ccccc2)CC1` the TGI (A498 renal) was over 100 µM, the TGI (EKVX NSCLC) was over 100 µM and the TGI (HL-60(TB) leukemia) was over 100 µM. The TGI (HOP-62 NSCLC) was over 100 µM, the TGI (K-562 leukemia) was over 100 µM and the TGI (MOLT-4 leukemia) was over 100 µM. For the same compound, the TGI (NCI/ADR-RES ovarian) was over 100 µM, the TGI (OVCAR-4 ovarian) was over 100 µM and the TGI (SF-295 CNS) was over 100 µM.
`Oc1cc2cccc[n+]2c2cccc(Cl)c12` gave a GI50 (EKVX NSCLC) of 38.4 µM, a GI50 (HL-60(TB) leukemia) of 35.8 µM and a GI50 (K-562 leukemia) of 25.4 µM. It also gave a TGI (K-562 leukemia) of 76 µM, a GI50 (MOLT-4 leukemia) of 34.9 µM and a GI50 (OVCAR-4 ovarian) of 16.2 µM. The TGI (OVCAR-4 ovarian) was 39.5 µM and the GI50 (SF-295 CNS) was 95.3 µM.
`CC1(C)COC(/C=C/C2=NC(C)(C)CO2)=N1` gave a TGI (A498 renal) of 25.4 µM, a TGI (EKVX NSCLC) of 41.8 µM and a TGI (HL-60(TB) leukemia) of 49.4 µM. For the same compound, the TGI (HOP-62 NSCLC) was 55.2 µM, the TGI (K-562 leukemia) was 63.4 µM and the TGI (MOLT-4 leukemia) was 36.1 µM. For the same compound, the TGI (NCI/ADR-RES ovarian) was 84 µM, the TGI (OVCAR-3 ovarian) was 30.8 µM and the TGI (OVCAR-4 ovarian) was 99.5 µM. For the same compound, the TGI (SF-295 CNS) was over 100 µM.
Work on `CC(C)C(N=Cc1ccccc1O)C(=O)O` (stereo not drawn) yielded a TGI (A498 renal) of over 100 µM, a TGI (EKVX NSCLC) of over 100 µM and a TGI (HL-60(TB) leukemia) of over 100 µM. The TGI (HOP-62 NSCLC) was over 100 µM, the TGI (K-562 leukemia) was over 100 µM and the TGI (MOLT-4 leukemia) was over 100 µM. For the same compound, the TGI (NCI/ADR-RES ovarian) was over 100 µM, the TGI (OVCAR-3 ovarian) was over 100 µM and the TGI (OVCAR-4 ovarian) was over 100 µM. For the same compound, the TGI (SF-295 CNS) was over 100 µM.
`O=C1/C(=C\c2ccc(-c3ccc(Cl)cc3Cl)o2)SC2N=C(COc3ccc(Cl)cc3)NN12` (stereo not drawn) was tested, and the TGI (A498 renal) was 5.98 µM, the TGI (EKVX NSCLC) was 86.5 µM and the TGI (HL-60(TB) leukemia) was over 100 µM. The TGI (HOP-62 NSCLC) was over 100 µM, the TGI (K-562 leukemia) was over 100 µM and the TGI (MOLT-4 leukemia) was over 100 µM. It also gave a TGI (NCI/ADR-RES ovarian) of over 100 µM, a TGI (OVCAR-3 ovarian) of over 100 µM and a TGI (OVCAR-4 ovarian) of over 100 µM. For the same compound, the TGI (SF-295 CNS) was over 100 µM.
`CC(O)C(O)C(N)CC=O` (stereo not drawn) showed a TGI (A498 renal) of over 50 µM, a TGI (EKVX NSCLC) of over 500 µM and a TGI (HL-60(TB) leukemia) of over 500 µM. The TGI (HOP-62 NSCLC) was over 500 µM, the TGI (K-562 leukemia) was over 500 µM and the TGI (MOLT-4 leukemia) was over 500 µM. For the same compound, the TGI (NCI/ADR-RES ovarian) was over 500 µM, the TGI (OVCAR-3 ovarian) was over 500 µM and the TGI (OVCAR-4 ovarian) was over 500 µM. It also gave a TGI (SF-295 CNS) of over 500 µM.
Work on `O=C(O)C1CC(c2ccccc2)=NN1c1ccccc1` (stereo not drawn) yielded a TGI (A498 renal) of over 100 µM, a TGI (EKVX NSCLC) of 88.9 µM and a TGI (HL-60(TB) leukemia) of over 100 µM. For the same compound, the TGI (HOP-62 NSCLC) was over 100 µM, the TGI (K-562 leukemia) was over 100 µM and the TGI (MOLT-4 leukemia) was over 100 µM. It also gave a TGI (NCI/ADR-RES ovarian) of over 100 µM, a TGI (OVCAR-3 ovarian) of over 100 µM and a TGI (OVCAR-4 ovarian) of over 100 µM. It also gave a TGI (SF-295 CNS) of over 100 µM.
`CCOC(=O)n1cncc1CC(NC(=O)Cc1c(C(=O)C=C(C)C)[nH]c2ccccc12)C(=O)OC` (stereo not drawn) gave a TGI (A498 renal) of 41.1 µM, a TGI (EKVX NSCLC) of 33.9 µM and a TGI (HL-60(TB) leukemia) of 44 µM. The TGI (K-562 leukemia) was over 100 µM, the TGI (MOLT-4 leukemia) was 47.3 µM and the TGI (NCI/ADR-RES ovarian) was over 100 µM. For the same compound, the TGI (OVCAR-3 ovarian) was 38.9 µM, the TGI (OVCAR-4 ovarian) was 37.9 µM and the TGI (SF-295 CNS) was 35.5 µM.
Compound `CN(C)Cc1ccc(C(=O)Nc2ccc3ncnc(Nc4ccc(Oc5cccc(F)c5)c(Cl)c4)c3c2)cc1` has a GI50 (A498 renal) of 1.35 µM, a TGI (A498 renal) of 2.71 µM and a GI50 (EKVX NSCLC) of 1.3 µM. It also gave a TGI (EKVX NSCLC) of 2.7 µM, a GI50 (HL-60(TB) leukemia) of 1.91 µM and a TGI (HL-60(TB) leukemia) of 3.7 µM. For the same compound, the GI50 (K-562 leukemia) was 1.17 µM, the TGI (K-562 leukemia) was 2.88 µM and the GI50 (MOLT-4 leukemia) was 1.55 µM. It also gave a TGI (MOLT-4 leukemia) of 3.21 µM, a GI50 (NCI/ADR-RES ovarian) of 1.67 µM and a TGI (NCI/ADR-RES ovarian) of 3.45 µM. It also gave a GI50 (OVCAR-3 ovarian) of 1.5 µM, a TGI (OVCAR-3 ovarian) of 2.92 µM and a GI50 (OVCAR-4 ovarian) of 1.53 µM. The TGI (OVCAR-4 ovarian) was 3.09 µM, the GI50 (SF-295 CNS) was 1.71 µM and the TGI (SF-295 CNS) was 3.11 µM.
